Measurements reported in patent US7273867B2, “Phenyl derivatives” (Merck Patent GmbH, priority 2001, dated 2007).

What follows are compounds tested against factor Xa (Homo sapiens, UniProt P00742) (assay: Inhibition of factor Xa).
Assay type: biochemical
Text: The inhibition of factor Xa by the compounds according to the invention and the measurement of the anticoagulant and antithrombotic activity can be determined by conventional in-vitro or in-vivo methods. A suitable method is described, for example, by J. Hauptmann et al. in Thrombosis and Haemostasis 1990, 63, 220-223.
The inhibition of factor Xa can be measured, for example, by the method of T. Hara et al. in Thromb. Haemostas. 1994, 71, 314-319.

Sequence of factor Xa (P00742 235-488 limits assumed): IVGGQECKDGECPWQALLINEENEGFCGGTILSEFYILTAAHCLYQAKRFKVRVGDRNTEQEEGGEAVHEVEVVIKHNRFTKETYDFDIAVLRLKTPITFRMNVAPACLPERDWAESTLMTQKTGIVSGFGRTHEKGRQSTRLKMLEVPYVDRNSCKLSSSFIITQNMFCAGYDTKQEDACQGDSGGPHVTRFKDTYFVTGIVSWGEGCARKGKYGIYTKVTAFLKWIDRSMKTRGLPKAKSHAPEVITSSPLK
Sequence of factor Xa (P00742 41-179 limits assumed): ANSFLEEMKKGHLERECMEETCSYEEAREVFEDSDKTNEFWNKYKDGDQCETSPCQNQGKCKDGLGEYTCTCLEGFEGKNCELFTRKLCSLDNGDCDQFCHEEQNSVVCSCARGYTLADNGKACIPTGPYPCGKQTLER

IC50 [nM] | Compound
90 | N=C(N)c1cccc(OC(C(=O)Nc2ccc(N3CCOCC3)cc2)c2ccccc2)c1 (stereo not shown) [2-(3-amidinophenoxy)-N-(4-morpholin-4-ylphenyl)-2-phenylacetamide]
300 | CCCC(Oc1cccc(C(=N)N)c1)C(=O)Nc1ccc(N2CCOCC2)cc1 (stereo not shown) [2-(3-amidinophenoxy)-N-(4-morpholin-4-ylphenyl)valeramide]
70 | CCCC(Oc1cccc(C(=N)N)c1)C(=O)Nc1ccc(N2CCCCC2=O)cc1 (stereo not shown) [2-(3-amidinophenoxy)-N-[4-(2-oxopiperidin-1-yl)phenyl]valeramide]
65 | N=C(N)c1cccc(OC(C(=O)Nc2ccc(N3CCCC3=O)cc2)c2ccccc2)c1 (stereo not shown) [2-(3-amidinophenoxy)-N-[4-(2-oxopyrrolidin-1-yl)phenyl]-2-phenylacetamide]
130 | CCCC(Oc1cccc(C(=N)N)c1)C(=O)Nc1ccc(N2CCCC2=O)cc1 (stereo not shown) [2-(3-amidinophenoxy)-N-[4-(2-oxopyrrolidin-1-yl)phenyl]valeramide]
160 | CC(C)CC(Nc1cccc(C(=N)N)c1)C(=O)Nc1ccc(N(C)C)cc1 (stereo not shown) [2-(3-amidinophenylamino)-N-(4-dimethylaminophenyl)-4-methylvaleramide]
34 | N=C(N)c1cccc(NC(C(=O)Nc2ccc(N3CCOCC3)cc2)c2ccccc2)c1 (stereo not shown) [2-(3-amidinophenylamino)-N-(4-morpholin-4-ylphenyl)-2-phenylacetamide]
32 | N=C(N)c1cccc(OC(C(=O)Nc2ccc(N3CCCCC3=O)cc2)c2ccccc2)c1 (stereo not shown) [EMD 388547, 2-(3-amidinophenoxy)-N-[4-(2-oxopiperidin-1-yl)phenyl]-2-phenylacetamide]

Each compound was assayed against T1, factor VIIa (Homo sapiens, UniProt P08709) (assay: Inhibition of factor VIIa).
T1 sequence (P08709 213-466 limits assumed): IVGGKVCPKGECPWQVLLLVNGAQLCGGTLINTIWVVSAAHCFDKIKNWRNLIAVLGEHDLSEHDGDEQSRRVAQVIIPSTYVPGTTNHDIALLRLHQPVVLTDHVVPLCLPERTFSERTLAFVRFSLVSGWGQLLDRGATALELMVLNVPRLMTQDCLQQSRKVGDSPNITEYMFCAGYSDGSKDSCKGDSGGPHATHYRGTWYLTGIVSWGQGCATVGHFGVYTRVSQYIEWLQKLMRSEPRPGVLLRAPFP
T1 sequence (P08709 61-212 limits assumed): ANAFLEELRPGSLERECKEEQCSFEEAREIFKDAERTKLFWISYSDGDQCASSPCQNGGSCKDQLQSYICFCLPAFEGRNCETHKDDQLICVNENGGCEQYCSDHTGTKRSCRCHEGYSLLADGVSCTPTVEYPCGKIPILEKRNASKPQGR
Assay type: biochemical
Text: Coagulation factor VIIa initiates the extrinsic part of the coagulation cascade after binding to tissue factor and contributes to the activation of factor X to give factor Xa. Inhibition of factor VIIa thus prevents the formation of factor Xa and thus subsequent thrombin formation. The inhibition of factor VIIa by the compounds according to the invention and the measurement of the anticoagulant and antithrombotic activity can be determined by conventional in-vitro or in-vivo methods. A conventional method for the measurement of the inhibition of factor VIIa is described, for example, by H. F. Ronning et al. in Thrombosis Research 1996, 84, 73-81.

IC50 [nM] | Compound
60 | N=C(N)c1cccc(OC(C(=O)Nc2ccc(N3CCOCC3)cc2)c2ccccc2)c1 (stereo not shown) [2-(3-amidinophenoxy)-N-(4-morpholin-4-ylphenyl)-2-phenylacetamide]
490 | CCCC(Oc1cccc(C(=N)N)c1)C(=O)Nc1ccc(N2CCOCC2)cc1 (stereo not shown) [2-(3-amidinophenoxy)-N-(4-morpholin-4-ylphenyl)valeramide]
33 | CCCC(Oc1cccc(C(=N)N)c1)C(=O)Nc1ccc(N2CCCCC2=O)cc1 (stereo not shown) [2-(3-amidinophenoxy)-N-[4-(2-oxopiperidin-1-yl)phenyl]valeramide]
39 | N=C(N)c1cccc(OC(C(=O)Nc2ccc(N3CCCC3=O)cc2)c2ccccc2)c1 (stereo not shown) [2-(3-amidinophenoxy)-N-[4-(2-oxopyrrolidin-1-yl)phenyl]-2-phenylacetamide]
83 | CCCC(Oc1cccc(C(=N)N)c1)C(=O)Nc1ccc(N2CCCC2=O)cc1 (stereo not shown) [2-(3-amidinophenoxy)-N-[4-(2-oxopyrrolidin-1-yl)phenyl]valeramide]
21 | CC(C)CC(Nc1cccc(C(=N)N)c1)C(=O)Nc1ccc(N(C)C)cc1 (stereo not shown) [2-(3-amidinophenylamino)-N-(4-dimethylaminophenyl)-4-methylvaleramide]
22 | N=C(N)c1cccc(NC(C(=O)Nc2ccc(N3CCOCC3)cc2)c2ccccc2)c1 (stereo not shown) [2-(3-amidinophenylamino)-N-(4-morpholin-4-ylphenyl)-2-phenylacetamide]
14 | N=C(N)c1cccc(OC(C(=O)Nc2ccc(N3CCCCC3=O)cc2)c2ccccc2)c1 (stereo not shown) [EMD 388547, 2-(3-amidinophenoxy)-N-[4-(2-oxopiperidin-1-yl)phenyl]-2-phenylacetamide]
